Laboratory results reported in US20160159814A1, “GLYCINE TRANSPORTER INHIBITOR” (TAISHO PHARMACEUTICAL CO., LTD., priority 2013, published 2016).

Molecular target: T1, human type 1 glycine transporter (GlyT1) (Homo sapiens, UniProt P48067)
T1 construct: T98G cells (glioma cells) expressing human type 1 glycine transporter (GlyT1) were used; endogenous in cells; host or cells: T98G cells (human glioma cells)
T1 sequence (P48067 1-706): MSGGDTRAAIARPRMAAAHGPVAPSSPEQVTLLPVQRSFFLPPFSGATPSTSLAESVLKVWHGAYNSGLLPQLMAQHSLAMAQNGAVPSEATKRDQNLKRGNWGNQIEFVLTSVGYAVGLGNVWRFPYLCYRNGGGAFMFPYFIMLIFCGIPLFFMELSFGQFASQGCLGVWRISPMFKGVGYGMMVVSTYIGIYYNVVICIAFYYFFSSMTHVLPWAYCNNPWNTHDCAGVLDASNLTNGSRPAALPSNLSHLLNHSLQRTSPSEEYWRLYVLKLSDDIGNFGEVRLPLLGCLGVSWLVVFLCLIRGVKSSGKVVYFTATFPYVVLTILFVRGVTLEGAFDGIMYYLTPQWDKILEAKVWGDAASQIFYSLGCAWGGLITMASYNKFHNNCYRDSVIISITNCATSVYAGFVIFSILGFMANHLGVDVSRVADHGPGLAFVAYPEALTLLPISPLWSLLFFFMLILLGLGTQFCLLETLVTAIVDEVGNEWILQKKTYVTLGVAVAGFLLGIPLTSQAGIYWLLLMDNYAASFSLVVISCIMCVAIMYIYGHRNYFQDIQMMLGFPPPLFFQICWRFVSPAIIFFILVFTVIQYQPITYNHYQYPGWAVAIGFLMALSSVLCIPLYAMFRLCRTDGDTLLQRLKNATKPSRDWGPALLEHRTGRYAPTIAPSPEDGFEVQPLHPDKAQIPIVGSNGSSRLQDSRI
Experiment: Glycine uptake inhibition experiment ([3H] glycine uptake in T98G cells expressing GlyT1)
Format: cell-based
Conditions: not given
Procedure, shortened: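 T98G glioma cells expressing human GlyT1 were pretreated 10 min with compound in HEPES buffer pH 7.4 (0.2% BSA), then incubated with compound plus 250 nM final [3H]glycine for 15 min at room temperature. Intracellular radioactivity was counted after NaOH lysis; 10 μM ALX5407 defined non-specific uptake. IC50 came from 10^−9–10^−5 M curves.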

Row | SMILES | IC50
1 | C[C@H](O)c1cccc2c1C(F)(F)C(=O)N2Cc1ccncc1F [Compound 163, 3,3-difluoro-1-[(3-fluoropyridin-4-yl)methyl]-4-[(1S)-1-hydroxyethyl]-1,3-dihydro-2H-indol-2-one] | 410 nM
2 | C[C@H](O)c1cccc2c1C(F)(F)C(=O)N2Cc1cncc(C2CC2)c1 [Compound 174, 1-[(5-cyclopropylpyridin-3-yl)methyl]-3,3-difluoro-4-[(1S)-1-hydroxyethyl]-1,3-dihydro-2H-indol-2-one] | 95 nM
3 | C[C@H](O)c1cccc2c1C(F)(F)C(=O)N2Cc1ccnc(C2CC2)c1 [Compound 175, 1-[(2-cyclopropylpyridin-4-yl)methyl]-3,3-difluoro-4-[(1S)-1-hydroxyethyl]-1,3-dihydro-2H-indol-2-one] | 23 nM
4 | C[C@H](O)c1cccc2c1C(F)(F)C(=O)N2Cc1cccc(C#N)n1 [Compound 177, 6-({3,3-difluoro-4-[(1S)-1-hydroxyethyl]-2-oxo-2,3-dihydro-1H-indol-1-yl}methyl)pyridine-2-carbonitrile] | 24 nM
5 | C[C@H](O)c1cccc2c1C(F)(F)C(=O)N2Cc1ccncc1Cl [Compound 185, 1-[(3-chloropyridin-4-yl)methyl]-3,3-difluoro-4-[(1S)-1-hydroxyethyl]-1,3-dihydro-2H-indol-2-one] | 280 nM
6 | C[C@H](O)c1cccc2c1C(F)(F)C(=O)N2Cc1cc(Cl)nc(C#N)c1 [Compound 187, 6-chloro-4-({3,3-difluoro-4-[(1S)-1-hydroxyethyl]-2-oxo-2,3-dihydro-1H-indol-1-yl}methyl)pyridine-2-carbonitrile] | 34 nM
7 | C[C@H](O)c1cccc2c1C(F)(F)C(=O)N2Cc1cc(C#N)ncc1F [Compound 188, 4-({3,3-difluoro-4-[(1S)-1-hydroxyethyl]-2-oxo-2,3-dihydro-1H-indol-1-yl}methyl)-5-fluoropyridine-2-carbonitrile] | 62 nM
8 | C[C@H](O)c1cccc2c1C(F)(F)C(=O)N2Cc1cncc(OC(F)F)c1 [Compound 189, 1-{[5-(difluoromethoxy)pyridin-3-yl]methyl}-3,3-difluoro-4[(1S)-1-hydroxyethyl)-1,3-dihydro-2H-indol-2-one] | 79 nM
9 | C[C@H](O)c1cccc2c1C(F)(F)C(=O)N2Cc1ccc(Br)nc1 [Compound 190, 1-[(6-bromopyridin-3-yl)methyl]-3,3-difluoro-4-[(1S)-1-hydroxyethyl]-1,3-dehydro-2H-indol-2-one] | 51 nM
10 | C[C@H](O)c1cccc2c1C(F)(F)C(=O)N2Cc1ccc(-n2cncn2)nc1 [Compound 193, 3,3-difluoro-4-[(1S)-1-hydroxyethyl]-1-{[6-(1H-1,2,4-biazol-1-yl)pyridin-3-yl]methyl}-1,3-dihydro-2H-indol-2-one] | 1400 nM
11 | C[C@H](O)c1cccc2c1C(F)(F)C(=O)N2Cc1cc(C#N)ncc1Cl [Compound 195, 5-chloro-4-({3,3-difluoro-4-[(1S)-1-hydroxyethyl]-2-oxo-2,3-dihydro-1H-indol-1-yl}methyl)pyridine-2-carbonitrile] | 42 nM
12 | C[C@H](O)c1cccc2c1C(F)(F)C(=O)N2Cc1ccc(Cl)c(C#N)n1 [Compound 202, 3-chloro-6-({3,3-difluoro-4-[(1S)-1-hydroxyethyl]-2-oxo-2,3-dihydro-1H-indol-1-yl)methyl)pyridine-2-carbonitrile] | 6.9 nM
13 | C[C@H](O)c1cccc2c1C(F)(F)C(=O)N2Cc1ccc(Cl)nn1 [Compound 204, 1-[(6-chloropyridazin-3-yl)methyl]-3,3-difluoro-4-[(1S)-1-hydroxyethyl]-1,3-dihydro-2H-indol-2-one] | 110 nM

The next lines start with the values.

Row | IC50 | SMILES
14 | 26 nM | COc1cc(CN2C(=O)C(F)(F)c3c([C@@H](O)C(F)(F)F)cccc32)ccn1 [Compound 166, 3,3-difluoro-1-[(2-methoxypyridin-4-yl)methyl]-4-[(1R)-2,2,2-trifluoro-1-hydroxyethyl]-1,3-dihydro-2H-indol-2-one]
15 | 19 nM | C[C@H](O)c1cccc2c1C(F)(F)C(=O)N2Cc1ccnc(C#N)c1F [Compound 173, 4-({3,3-difluoro-4-[(1S)-1-hydroxyethyl]-2-oxo-2,3-dihydro-1H-indol-1-yl}methyl)-3-fluoropyridine-2-carbonitrile]
16 | 67 nM | C[C@H](O)c1cccc2c1C(F)(F)C(=O)N2Cc1ccnc(C#N)c1Cl [Compound 192]
17 | 43 nM | C[C@H](O)c1cccc2c1C(F)(F)C(=O)N2Cc1ccnc(OC(F)F)c1 [Compound 194, 1-{[2-(difluoromethoxy)pyridin-4-yl]methyl}-3,3-difluoro-4-[(1S)-1-hydroxyethyl]-1,3-dihydro-2H-indol-2-one]
18 | 4200 nM | C[C@H](O)c1cccc2c1C(F)(F)C(=O)N2Cc1ccc(-n2nccn2)nc1 [Compound 196, 3,3-difluoro-4-[(1S)-1-hydroxyethyl]-1-{[6-(2H-1,2,3-triazol-2-yl)pyridin-3-yl]methyl)-1,3-dihydro-2H-indol-2-one]
19 | 6700 nM | C[C@H](O)c1cccc2c1C(F)(F)C(=O)N2Cc1ccc(-n2ccnn2)nc1 [Compound 197, 3,3-difluoro-4-[(1S)-1-hydroxyethyl]-1-{[6-(1H-1,2,3-triazol-1-yl)pyridin-3-yl]methyl)-1,3-dihydro-2H-indol-2-one]
20 | 160 nM | C[C@H](O)c1cccc2c1C(F)(F)C(=O)N2Cc1ccc(C2CC2)nc1 [Compound 198, 1-[(6-cyclopropylpyridin-3-yl)methyl]-3,3-difluoro-4-[(1S)-1-hydroxyethyl]-1,3-dihydro-2H-indol-2-one]
21 | 110 nM | C[C@H](O)c1cccc2c1C(F)(F)C(=O)N2Cc1cnc(Cl)cn1 [Compound 199, 1-[(5-chloropyrazin-2-yl)methyl]-3,3-difluoro-4-[(1S)-1-hydroxyethyl]-1,3-dihydro-2H-indol-2-one]
22 | 8.6 nM | C[C@H](O)c1cccc2c1C(F)(F)C(=O)N2Cc1cnc(Cl)c(Cl)c1 [Compound 200, 1-[(5,6-dichloropyridin-3-yl)methyl]-3,3-difluoro-4-[(1S)-1-hydroxyethyl]-1,3-dihydro-2H-indol-2-one]
23 | 830 nM | C[C@H](O)c1cccc2c1C(F)(F)C(=O)N2Cc1ccc(C#N)nc1 [Compound 201, 5-({3,3-difluoro-4-[(1S)-1-hydroxyethyl]-2-oxo-2,3-dihydro-1-indol-1-yl}methyl)pyridine-2-carbonitrile]
24 | 31 nM | COc1ccc(CN2C(=O)C(F)(F)c3c([C@H](C)O)cccc32)cn1 [Compound 203, 3,3-difluoro-4-[(1S)-1-hydroxyethyl]-1-[(6-methoxypyridin-3-yl)methyl]-1,3-dihydro-2H-indol-2-one]

Same assay, conditions: glycine uptake inhibition

Row | SMILES | IC50
25 | O=C1N(Cc2nc3ccccc3[nH]c2=O)c2cccc([C@@H](O)C(F)(F)F)c2C1(F)F [Compound 140, 3-({3,3-difluoro-2-oxo-4-[(1R)-2,2,2-trifluoro-1-hydroxyethyl]-2,3-dihydro-1H-indol-1-yl}methyl) quinoxalin-2(1H)-one] | 33 nM
26 | Cn1c(CN2C(=O)C(F)(F)c3c([C@@H](O)C(F)(F)F)cccc32)cc2ccccc2c1=O [Compound 142, 3-({3,3-difluoro-2-oxo-4-[(1R)-2,2,2-trifluoro-1-hydroxyethyl]-2,3-dihydro-1H-indol-1-yl}methyl)-2-methylisoquinan-1(2H)-one] | 130 nM
27 | O=C1N(Cc2ccnc(F)c2)c2cccc([C@@H](O)C(F)(F)F)c2C1(F)F [Compound 149, 3,3-difluoro-1-[(2-fluoropyridin-4-yl)methyl]-4-[(1R)-2,2,2-trifluoro-1-hydroxyethyl]-1,3-dihydro-2H-indol-2-one] | 200 nM
28 | O=C1N(Cc2ccc(F)nc2)c2cccc([C@@H](O)C(F)(F)F)c2C1(F)F [Compound 155, 3,3-difluoro-1-[(6-fluoropyridin-3-yl)methyl]-4-[(1R)-2,2,2-trifluoro-1-hydroxyethyl]-1,3-dihydro-2H-indol-2-one] | 180 nM

Results, then the compound that gave them:

Row | IC50 | SMILES
29 | 100 nM | Cn1c(=O)c(CN2C(=O)C(F)(F)c3c([C@@H](O)C(F)(F)F)cccc32)nc2ccccc21 [Compound 141, 3-({3,3-difluoro-2-oxo-4-[(1R)-2,2,2-trifluoro-1-hydroxyethyl]-2,3-dihydro-1H-indol-1-yl}methyl)-1-methylquinoxalin-2(1H)-one]
30 | 43 nM | O=C1N(Cc2cc(Cl)ccn2)c2cccc([C@@H](O)C(F)(F)F)c2C1(F)F [Compound 145, 1-[(4-chloropyndin-2-yl)methyl]-3,3-difluoro-4-[(1R)-2,2,2-trifluoro-1-hydroxyethyl]-1,3-dihydro-2H-indol-2-one]
31 | 310 nM | O=C1N(Cc2ccnc(F)c2)c2cccc(C(O)C(F)F)c2C1(F)F (stereo not shown) [Compound 150, 4-(2,2-difluoro-1-hydroxyethyl)-3,3-difluoro-1-[(2-fluoropyridin-4-yl)methyl]-1,3-dihydro-2H-indol-2-one]
